Consider 28 compounds from US20080004253A1, “Thiazolopyrimidine modulators of TRPV1” (priority 2006, published 2008).

pIC50: −log10 of the molar value. A value given as a limit tells only on which side of the number the result lay.

For one test, the target named is T1, rat TRPV1 (Rattus norvegicus, UniProt O35433).
T1 construct: expressed in transfected cells; host or cells: HEK293 (rTRPV1/HEK293), geneticin selection
The test can be described thus: Functional assay: block of capsaicin-induced Ca2+ influx, rat assay (rTRPV1/HEK293, FLIPR). The class given is cell-based. The note with it: rTRPV1/HEK293 cells, capsaicin challenge, Fluo-3 fluorescence; mean; > value = solubility limit in assay medium. The method in brief: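 Compounds, as free base or TFA salt, tested from 10 μM in three-fold steps on rTRPV1-transfected HEK293 cells, with 30 min preincubation in low-calcium (20 μM) buffer. Capsaicin-evoked Ca2+ influx measured by FLIPR fluo3 signal before and 100 s after addition. Averaged IC50 from non-linear fits.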

The target in a further test is T2, human TRPV1 (Homo sapiens, UniProt Q8NER1).
T2 construct: expressed in transfected cells; host or cells: HEK293 (hTRPV1/HEK293), zeocin selection
T2 sequence (Q8NER1 whole entry): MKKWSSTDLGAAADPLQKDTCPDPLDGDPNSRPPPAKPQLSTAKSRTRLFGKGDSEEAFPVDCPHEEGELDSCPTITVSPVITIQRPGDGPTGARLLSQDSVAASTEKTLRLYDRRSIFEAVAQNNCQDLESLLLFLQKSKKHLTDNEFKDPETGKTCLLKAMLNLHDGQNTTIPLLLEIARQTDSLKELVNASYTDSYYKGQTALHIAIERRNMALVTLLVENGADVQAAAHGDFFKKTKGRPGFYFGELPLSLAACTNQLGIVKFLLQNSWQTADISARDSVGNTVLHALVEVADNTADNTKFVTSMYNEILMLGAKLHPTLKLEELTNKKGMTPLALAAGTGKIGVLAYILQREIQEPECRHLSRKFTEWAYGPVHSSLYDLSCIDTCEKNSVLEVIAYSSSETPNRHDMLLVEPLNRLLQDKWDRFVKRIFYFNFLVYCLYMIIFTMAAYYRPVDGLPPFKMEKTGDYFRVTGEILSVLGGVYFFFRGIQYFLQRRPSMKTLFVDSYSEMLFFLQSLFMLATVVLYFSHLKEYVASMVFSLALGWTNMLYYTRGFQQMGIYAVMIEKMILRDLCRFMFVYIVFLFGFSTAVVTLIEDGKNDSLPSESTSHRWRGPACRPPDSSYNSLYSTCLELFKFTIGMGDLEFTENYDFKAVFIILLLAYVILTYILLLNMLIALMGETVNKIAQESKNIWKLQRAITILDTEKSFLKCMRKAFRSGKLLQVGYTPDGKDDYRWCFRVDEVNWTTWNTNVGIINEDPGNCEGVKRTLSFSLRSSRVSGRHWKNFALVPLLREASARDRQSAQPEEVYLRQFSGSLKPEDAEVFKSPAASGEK
The test can be described thus: Functional assay: block of capsaicin-induced Ca2+ influx, human assay (hTRPV1/HEK293, FLIPR). The class given is cell-based. The note with it: hTRPV1/HEK293 cells, 150 nM capsaicin challenge, Fluo-3 fluorescence; mean; > value = solubility limit in assay medium. A digest of the protocol: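 HEK293 cells stably expressing human TRPV1, fluo3-loaded, preincubated 30 min with compound (serial 3-fold dilutions from 10 μM, duplicate) in 20 μM Ca2+ buffer. Capsaicin response taken as fluo3 fluorescence change before vs 100 s after agonist; IC50 by non-linear regression, mean values; free base or TFA salt.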

T1 sequence (O35433 whole entry): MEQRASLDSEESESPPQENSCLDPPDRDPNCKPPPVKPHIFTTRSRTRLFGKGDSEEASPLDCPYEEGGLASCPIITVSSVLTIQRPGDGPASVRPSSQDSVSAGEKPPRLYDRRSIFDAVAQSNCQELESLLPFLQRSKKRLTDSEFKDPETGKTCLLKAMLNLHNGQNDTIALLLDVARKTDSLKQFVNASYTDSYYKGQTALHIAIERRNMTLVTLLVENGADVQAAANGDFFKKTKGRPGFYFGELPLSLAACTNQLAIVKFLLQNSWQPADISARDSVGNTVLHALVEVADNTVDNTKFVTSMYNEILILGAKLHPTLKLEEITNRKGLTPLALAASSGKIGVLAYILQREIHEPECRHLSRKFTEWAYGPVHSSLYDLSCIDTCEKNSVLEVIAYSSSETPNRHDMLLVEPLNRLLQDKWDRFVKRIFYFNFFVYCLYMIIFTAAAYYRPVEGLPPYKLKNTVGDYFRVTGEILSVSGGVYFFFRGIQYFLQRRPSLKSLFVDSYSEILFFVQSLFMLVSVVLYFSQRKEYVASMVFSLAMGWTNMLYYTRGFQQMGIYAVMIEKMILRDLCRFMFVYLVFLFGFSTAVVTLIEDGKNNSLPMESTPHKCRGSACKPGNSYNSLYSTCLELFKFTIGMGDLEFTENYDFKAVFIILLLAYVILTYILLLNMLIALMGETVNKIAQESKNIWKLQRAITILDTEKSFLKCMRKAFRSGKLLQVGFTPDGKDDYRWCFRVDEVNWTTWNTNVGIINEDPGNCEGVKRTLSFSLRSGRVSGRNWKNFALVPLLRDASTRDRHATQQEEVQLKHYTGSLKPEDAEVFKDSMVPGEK

As a reminder, the pIC50 is −log10 of the IC50, conventionally taken in molar units. Higher therefore signals a small IC50. As to `Cc1nc(NC2CCC(C(C)(C)C)CC2)c2nc(Nc3c(Cl)cccc3Cl)sc2n1` (mixture of isomers) [Example 8, N^7-(4-tert-Butyl-cyclohexyl)-N^2-(2,6-dichloro-phenyl)-5-methyl-thiazolo[5,4-d]pyrimidine-2,7-diamine], the pIC50 against rat TRPV1 is 7.15; on human TRPV1, 5.96.
On to `Cc1cccc(C)c1Nc1nc2c(Nc3ccc(C#N)cc3)ncnc2s1` [Example 31, 4-[2-(2,6-Dimethyl-phenylamino)-thiazolo[5,4-d]pyrimidin-7-ylamino]-benzonitrile], for which the negative logarithm of the IC50 (pIC50) on rat TRPV1 is 7.48; on human TRPV1 it was 7.40.
On to `CC(C)CNc1nc(Nc2ccc(C(F)(F)F)cc2)c2nc(Nc3c(Cl)cccc3Cl)sc2n1` [Example 79, N^2-(2,6-Dichloro-phenyl)-N^5-isobutyl-N^7-(4-trifluoromethyl-phenyl)-thiazolo[5,4-d]pyrimidine-2,5,7-triamine], for which the figures for the pIC50 against rat TRPV1 and against human TRPV1 were 9.00 and 8.70, respectively.
Take `Cc1nc(Nc2ccc(C(F)(F)F)cc2)c2nc(Nc3ccccc3Cl)sc2n1` [Example 202, N^2-(2-Chloro-phenyl)-5-methyl-N^7-(4-trifluoromethyl-phenyl)-thiazolo[5,4-d]pyrimidine-2,7-diamine]: the pIC50 at rat TRPV1 and against human TRPV1 was 7.24 in each case.
As to `CS(=O)(=O)c1ccc(Nc2ncnc3sc(Nc4c(Cl)cc(C#N)cc4Cl)nc23)cc1` [Example 236, 3,5-Dichloro-4-[7-(4-methanesulfonyl-phenylamino)-thiazolo[5,4-d]pyrimidin-2-ylamino]-benzonitrile], the negative-log IC50 (pIC50) is 7.42 at rat TRPV1 and 6.94 on human TRPV1.
In the same order, the values of `Cc1noc(C)c1Nc1nc2c(Nc3ccc(C(C)(C)C)cc3)ncnc2s1` [Example 51, N^7-(4-tert-Butyl-phenyl)-N^2-(3,5-dimethyl-isoxazol-4-yl)-thiazolo[5,4-d]pyrimidine-2,7-diamine] are 7.47 and 6.65.
In the same order, the values of `Cc1cccc(C)c1Nc1nc2c(Nc3ccc(S(C)(=O)=O)cc3)ncnc2s1` [Example 115, N^2-(2,6-Dimethyl-phenyl)-N^7-(4-methanesulfonyl-phenyl)-thiazolo[5,4-d]pyrimidine-2,7-diamine] are 8.40 and 7.36.
As to `OCC1CN(c2nc(Nc3ccc(C(F)(F)F)c(Cl)c3)c3nc(Nc4c(Cl)cccc4Cl)sc3n2)CCO1` (racemic) [Example 155, (racemic)-{4-[7-(3-Chloro-4-trifluoromethyl-phenylamino)-2-(2,6-dichloro-phenylamino)-thiazolo[5,4-d]pyrimidin-5-yl]-morpholin-2-yl}-methanol], the pIC50 against rat TRPV1 was 6.38; against human TRPV1 it was 5.81.
`Cc1nc(Nc2ccc(C(F)(F)F)cc2)c2nc(Nc3c(-c4ccccc4)noc3C)sc2n1` [Example 27, 5-Methyl-N^2-(5-methyl-3-phenyl-isoxazol-4-yl)-N^7-(4-trifluoromethyl-phenyl)-thiazolo[5,4-d]pyrimidine-2,7-diamine]: the figures for the negative-log IC50 (pIC50) against rat TRPV1 and against human TRPV1 were 7.60 and 7.04, respectively.
Take `COc1nc(Nc2ccc(C(F)(F)F)cc2)c2nc(Nc3c(Cl)cccc3Cl)sc2n1` [Example 55, N^2-(2,6-Dichloro-phenyl)-5-methoxy-N^7-(4-trifluoromethyl-phenyl)-thiazolo[5,4d]pyrimidine-2,7-diamine]: the negative-log IC50 (pIC50) at rat TRPV1 and against human TRPV1 was < 4.70 in each case.
In the case of `Cc1noc(C)c1Nc1nc2c(Nc3ccc(C(F)(F)F)cc3)ncnc2s1` [Example 25, N^2-(3,5-Dimethyl-isoxazol-4-yl)-N^7-(4-trifluoromethyl-phenyl)-thiazolo[5,4-d]pyrimidine-2,7-diamine], the pIC50 was 7.17 against rat TRPV1 and 6.38 against human TRPV1.
With `CS(=O)(=O)c1ccc(Nc2ncnc3sc(Nc4ccccc4S(C)(=O)=O)nc23)cc1` [Example 198, N^2-(2-Methanesulfonyl-phenyl)-N^7-(4-methanesulfonyl-phenyl)-thiazolo[5,4-d]pyrimidine-2,7-diamine], the results for the pIC50 against rat TRPV1 and against human TRPV1 were < 4.70 and 5.01, respectively.
Regarding `FC(F)(F)c1ccc(Nc2nc3c(Nc4ccc(C(F)(F)F)cc4)ncnc3s2)cc1` [Example 22, N^2,N^7-Bis-(4-trifluoromethyl-phenyl)-thiazolo[5,4-d]pyrimidine-2,7-diamine], the negative-log IC50 (pIC50) against rat TRPV1 was 5.77; against human TRPV1 it was < 5.18.
In the case of `Cc1nc(Nc2ccc(S(=O)(=O)N3CCCC3)cc2)c2nc(Nc3c(C)cccc3C)sc2n1` [Example 92, N^2-(2,6-Dimethyl-phenyl)-5-methyl-N^7-[4-(pyrrolidine-1-sulfonyl)-phenyl]-thiazolo[5,4-d]pyrimidine-2,7-diamine], the negative-log IC50 (pIC50) against rat TRPV1 is 8.70; against human TRPV1, 8.10.
The like results for `Cc1ccccc1Nc1nc2c(Nc3ccc(C(F)(F)F)cc3)ncnc2s1` [Example 17, N^2-o-Tolyl-N^7-(4-trifluoromethyl-phenyl)-thiazolo[5,4-d]pyrimidine-2,7-diamine] were, in that order, 7.72 and 7.15.
Consider `O=S(=O)(c1ccc(Nc2ncnc3sc(Nc4ccccc4Cl)nc23)cc1)N1CCCC1` [Example 109, N^2-(2-Chloro-phenyl)-N^7-[4-(pyrrolidine-1-sulfonyl)-phenyl]-thiazolo[5,4-d]pyrimidine-2,7-diamine], for which the pIC50 is 7.74 on rat TRPV1 and 7.55 against human TRPV1.
With `CC1CCCCN1c1nc(Nc2ccc(C(F)(F)F)cc2)c2nc(Nc3c(Cl)cccc3Cl)sc2n1` (racemic) [Example 191, (racemic)-N^2-(2,6-Dichloro-phenyl)-5-(2-methyl-piperidin-1-yl)-N^7-(4-trifluoromethyl-phenyl)-thiazolo[5,4-d]pyrimidine-2,7-diamine], the negative-log IC50 (pIC50) is 7.25 on rat TRPV1 and 7.85 against human TRPV1.
In the case of `FC(F)(F)c1ccc(Nc2ncnc3sc(Nc4c(Cl)cccc4C(F)(F)F)nc23)cn1` [Example 19, N^2-(2-Chloro-6-trifluoromethyl-phenyl)-N^7-(6-trifluoromethyl-pyridin-3-yl)-thiazolo[5,4-d]pyrimidine-2,7-diamine], the figures for the negative-log IC50 (pIC50) against rat TRPV1 and at human TRPV1 were 7.51 and 7.13, respectively.
`FC(F)(F)c1ccc(Nc2ncnc3sc(Nc4ccccc4)nc23)cc1` [Example 20, N^2-Phenyl-N^7-(4-trifluoromethyl-phenyl)-thiazolo[5,4-d]pyrimidine-2,7-diamine]: the pIC50 on rat TRPV1 was 5.57; at human TRPV1, < 5.18.
In the same order, the values of `Cc1nc(Nc2ccc(S(=O)(=O)N(C)C)cc2)c2nc(Nc3c(C)cccc3C)sc2n1` [Example 85, 4-[2-(2,6-Dimethyl-phenylamino)-5-methyl-thiazolo[5,4-d]pyrimidin-7-ylamino]-N,N-dimethyl-benzenesulfonamide] are 8.52 and 8.40.
Consider `FC(F)(F)c1ccc(Nc2ncnc3sc(Nc4c(Cl)cccc4Cl)nc23)cc1` [Example 1, N^2-(2,6-Dichloro-phenyl)-N^7-(4-trifluoromethyl-phenyl)-thiazolo[5,4-d]pyrimidine-2,7-diamine], for which the pIC50 at rat TRPV1 was 8.52; on human TRPV1 it was 7.92.
In the same order, the values of `Cc1nc(Nc2ccc(C(F)(F)F)cc2)c2nc(Nc3cccc4nsnc34)sc2n1` [Example 205, N^2-Benzo[1,2,5]thiadiazol-4-yl-5-methyl-N^7-(4-trifluoromethyl-phenyl)-thiazolo[5,4-d]pyrimidine-2,7-diamine] are 4.90 and 4.78.
For `CS(=O)(=O)c1ccccc1Nc1nc2c(Nc3ccc(C(F)(F)F)nc3)ncnc2s1` [Example 199, N^2-(2-Methanesulfonyl-phenyl)-N^7-(6-trifluoromethyl-pyridin-3-yl)-thiazolo[5,4-d]pyrimidine-2,7-diamine], the pIC50 is 5.97 at rat TRPV1 and 5.67 against human TRPV1.
`Cc1nc(Nc2ccc(S(C)(=O)=O)cc2)c2nc(Nc3c(C)cccc3C)sc2n1` [Example 95, N^2-(2,6-Dimethyl-phenyl)-N^7-(4-methanesulfonyl-phenyl)-5-methyl-thiazolo[5,4-d]pyrimidine-2,7-diamine]: the values for the pIC50 against rat TRPV1 and at human TRPV1 were 8.15 and 8.00, respectively.
Turning to `Cc1nc(Nc2ccc(C(F)(F)F)c(Cl)c2)c2nc(Nc3c(Cl)cccc3Cl)sc2n1` [Example 30, N^7-(3-Chloro-4-trifluoromethyl-phenyl)-N^2-(2,6-dichloro-phenyl)-5-methyl-thiazolo[5,4-d]pyrimidine-2,7-diamine], the pIC50 on rat TRPV1 and at human TRPV1 was 8.52 each time.
Turning to `Cc1nc(Nc2ccc(C(C)(C)O)cc2)c2nc(Nc3c(Cl)cccc3Cl)sc2n1` [Example 74, 2-{4-[2-(2,6-Dichloro-phenylamino)-5-methyl-thiazolo[5,4-d]pyrimidin-7-ylamino]-phenyl}-propan-2-ol], the pIC50 on rat TRPV1 is 10.30; against human TRPV1 it was 9.00.
The like results for `CNCCNc1nc(Nc2ccc(C(F)(F)F)cc2)c2nc(Nc3c(Cl)cccc3Cl)sc2n1` [Example 181, N^2-(2,6-Dichloro-phenyl)-N^5-(2-methylamino-ethyl)-N^7-(4-trifluoromethyl-phenyl)-thiazolo[5,4-d]pyrimidine-2,5,7-triamine] were, in that order, < 4.70 and 5.19.
For the compound `Cc1cccc(C)c1Nc1nc2c(Nc3ccccc3C(F)(F)F)ncnc2s1` [Example 36, N^2-(2,6-Dimethyl-phenyl)-N^7-(2-trifluoromethyl-phenyl)-thiazolo[5,4-d]pyrimidine-2,7-diamine], the pIC50 against rat TRPV1 and at human TRPV1 was < 5.18 throughout.
